44 molecules from US6423711B1 (dated 2002) can be followed below.

Where a name gives a salt, the structure may show the parent alone.

One may read the melting point as the temperature, or range, at which the solid turns liquid. Turning to `CCNC(=O)N1CCN(c2cc(-c3ccccc3)nc3ccsc23)CC1.Cl`, the melting point is > 240 °C (dec.). For `CCNC(=O)N1CCN(c2cc(-c3cccc(OC)c3)nc3ccsc23)CC1.Cl`, the melting point was above 198 °C. The value for `Cl.O=C(NCCCCl)N1CCN(c2cc(-c3ccc(F)cc3)nc3ccsc23)CC1` was 235 to 238 °C (dec.).

With `CCNC(=O)N1CCN(c2cc(-c3ccc(F)cc3)nc3ccsc23)CC1.Cl`, the melting point was > 147 °C (dec.). To `CNC(=O)N1CCN(c2cc(-c3ccccc3)nc3ccsc23)CC1.Cl` belongs 185 to 190 °C.

Turning to `CCNC(=O)C1CCN(c2cc(-c3ccccc3)nc3cccnc23)CC1.Cl`, the melting point was > 210 °C (dec.). To `CNC(=O)C1CCN(c2cc(-c3ccccc3)nc3ccsc23)CC1.Cl` belongs > 260 °C (dec.). `CCCNC(=O)C1CCN(c2cc(-c3ccccc3)nc3ccsc23)CC1.Cl`: the melting point was 159 to 160 °C (dec.). The value for `CC(C)(C)NC(=O)C1CCN(c2cc(-c3ccccc3)nc3ccsc23)CC1.Cl` was 270 to 272 °C (dec.); that for `CCCCNC(=O)C1CCN(c2cc(-c3ccccc3)nc3ccsc23)CC1.Cl` was 170 to 172 °C (dec.); that for `Cl.O=C(NC1CC1)C1CCN(c2cc(-c3ccccc3)nc3ccsc23)CC1` was 199 to 201 °C (dec.). To `Cl.NC(=O)C1CCN(c2cc(-c3ccccc3)nc3ccsc23)CC1` belongs 303 to 305 °C (dec.). To `Cl.NCCNC(=O)C1CCN(c2cc(-c3ccccc3)nc3ccsc23)CC1` belongs 176 to 178 °C (dec.); to `CCNCCNC(=O)C1CCN(c2cc(-c3ccccc3)nc3ccsc23)CC1.Cl`, > 95 °C (dec.). Consider `CN(C)CCNC(=O)C1CCN(c2cc(-c3ccccc3)nc3ccsc23)CC1.Cl`, for which the melting point was > 150 °C (dec.). To `COCCCNC(=O)C1CCN(c2cc(-c3ccccc3)nc3ccsc23)CC1.Cl` belongs 147 to 149 °C (dec.); to `Cl.O=C(NCc1ccccc1)C1CCN(c2cc(-c3ccccc3)nc3ccsc23)CC1`, 163 to 165 °C (dec.); to `Cl.O=C(NCc1cccc(F)c1)C1CCN(c2cc(-c3ccccc3)nc3ccsc23)CC1`, 236 to 238 °C (dec.). The value for `NC(=O)C1CCN(c2cc(-c3ccccc3F)nc3ccsc23)CC1` was 194 to 195 °C; that for `Cl.O=C(NCc1ccc(F)cc1)C1CCN(c2cc(-c3ccccc3)nc3ccsc23)CC1` was 190 to 192 °C (dec.). The value for `Cc1ccc(CNC(=O)C2CCN(c3cc(-c4ccccc4)nc4ccsc34)CC2)cc1.Cl` was 177 to 178 °C (dec.); that for `Cl.O=C(NCc1cccs1)C1CCN(c2cc(-c3ccccc3)nc3ccsc23)CC1` was > 230 °C (dec.).

For the molecule `COc1cccc(-c2cc(N3CCC(C(N)=O)CC3)c3sccc3n2)c1.Cl`, the melting point is 133 to 135 °C (dec.).

In the case of `CCNC(=O)C1CCN(c2cc(-c3cccc(OC)c3)nc3ccsc23)CC1.Cl`, the melting point is > 230 °C (dec.). To `CCOc1ccc(-c2cc(N3CCC(C(N)=O)CC3)c3sccc3n2)cc1.Cl` belongs 211 to 213 °C (dec.); to `CCOc1ccc(-c2cc(N3CCC(C(=O)NCc4ccccn4)CC3)c3sccc3n2)cc1.Cl`, 178 to 180 °C (dec.).

For `CCNC(=O)C1CCN(c2cc(-c3ccc(F)cc3)nc3ccsc23)CC1.Cl`, the melting point is 220 to 222 °C (dec.). `CCCNC(=O)C1CCN(c2cc(-c3ccc(F)cc3)nc3ccsc23)CC1.Cl`: the melting point is 207 to 209 °C (dec.). To `Cl.NCCNC(=O)C1CCN(c2cc(-c3ccc(F)cc3)nc3ccsc23)CC1` belongs 115 to 118 °C (dec.); to `CN(C)CCNC(=O)C1CCN(c2cc(-c3ccc(F)cc3)nc3ccsc23)CC1.Cl`, 180 to 182 °C (dec.); to `Cl.O=C(NCCO)C1CCN(c2cc(-c3ccc(F)cc3)nc3ccsc23)CC1`, 198 to 200 °C (dec.). The value for `Cl.O=C(NCCO)C1CCN(c2cc(-c3ccccc3)nc3ccsc23)CC1` was > 220 °C (dec.); that for `CCNC(=O)C1CCN(c2cc(-c3ccncc3)nc3ccsc23)CC1.Cl` was > 227 °C (dec.); that for `COC(=O)C1CCN(c2cc(-c3ccccc3)nc3sccc23)CC1.Cl` was > 220 °C (dec.). `NC(=O)C1CCN(c2cc(-c3ccc(F)cc3)nc3ccsc23)CC1` returned a melting point of 251 to 253 °C. To `COc1cccc(-c2cc(N3CCN(C(=O)c4ccncc4)CC3)c3sccc3n2)c1` (as salt: hydrochloride) belongs 215 to 217 °C; to `O=C(NC1CCCC1)C1CCN(c2cc(-c3ccccc3)nc3ccsc23)CC1` (as salt: hydrochloride), 179 to 181 °C (dec.). To `COCCNC(=O)C1CCN(c2cc(-c3ccccc3)nc3ccsc23)CC1` (as salt: hydrochloride) belongs 157 to 160 °C (dec.); to `O=C(NCC1CCCO1)C1CCN(c2cc(-c3ccccc3)nc3ccsc23)CC1` (centres unmarked) (as salt: hydrochloride), > 210 °C (dec.).

Consider `O=C(NCc1ccncc1)C1CCN(c2cc(-c3ccccc3)nc3ccsc23)CC1` (as salt: hydrochloride), for which the melting point is 176 to 178 °C (dec.).

In the case of `NC(=O)C1CCN(c2cc(-c3ccc(F)cc3)nc3ccsc23)CC1` (as salt: hydrochloride), the melting point was > 303 °C (dec.). For the molecule `COC(C)CNC(=O)C1CCN(c2cc(-c3ccc(F)cc3)nc3ccsc23)CC1` (centres unmarked) (as salt: hydrochloride), the melting point was 179 to 180 °C (dec.). The value for `COc1cccc(-c2cc(N3CCN(C(=O)c4ccc(F)cc4)CC3)c3sccc3n2)c1` (as salt: hydrochloride) was > 174 °C (dec.). The value for `c1ccc(-c2cc(N3CCOCC3)c3sccc3n2)cc1` (as salt: hydrochloride) was 195 to 198 °C.
